pIC50: −log10 of the molar value.
Columns and labels:
[1] = test system: ileal bile acid transporter; assay: Measurement of Bile Acid Transporter Inhibitory Activity in vivo ([3H]-taurocholic acid radioactivity in gall bladder bile); design: species or system Syrian golden hamsters; details: male hamsters; oral gavage 100 mg/10 ml/kg; [3H]-taurocholic acid 1.5 hours after; gall bladder bile at 24 hours
Experimental: Measurement of Bile Acid Transporter Inhibitory Activity in vivo
Male Syrian golden hamsters were used. The hamsters were reared in cages and fed food and water ad libitum. Test compound was orally administered by gavage (100 mg/10 ml/kg) as a suspension in 0.5% w/v carboxymethyl cellulose aqueous solution. Each hamster was given orally 1 μCi of [^3 H]-taurocholic acid ([…]) in physiological saline 1.5 hours after administration of the test compound. Twenty four hours after the oral administration of [^3 H]-taurocholic acid, each of the hamsters was sacrificed and the gall bladder bile was collected. The total radioactivity in the bladder bile was determined and compared to a vehicle-treated group.
Percentage inhibition (%) was determined by the following formula:
Inhibition percentage=100-(radioactivity in the treated
group)/(radioactivity in the control group)×100

[2] = target: T1, human ileal bile acid transporter (Homo sapiens, UniProt Q12908); assay: Measurement of Bile Acid Transporter Inhibitory Activity in vitro (uptake of [3H]-taurocholic acid into hIBAT-expressing Caco-2 cells); format: cell-based; details: 0.1 μCi [3H]-taurocholic acid, 37° C., 1 hour
T1 construct: expressed in transfected cells
T1 sequence (Q12908 1-348): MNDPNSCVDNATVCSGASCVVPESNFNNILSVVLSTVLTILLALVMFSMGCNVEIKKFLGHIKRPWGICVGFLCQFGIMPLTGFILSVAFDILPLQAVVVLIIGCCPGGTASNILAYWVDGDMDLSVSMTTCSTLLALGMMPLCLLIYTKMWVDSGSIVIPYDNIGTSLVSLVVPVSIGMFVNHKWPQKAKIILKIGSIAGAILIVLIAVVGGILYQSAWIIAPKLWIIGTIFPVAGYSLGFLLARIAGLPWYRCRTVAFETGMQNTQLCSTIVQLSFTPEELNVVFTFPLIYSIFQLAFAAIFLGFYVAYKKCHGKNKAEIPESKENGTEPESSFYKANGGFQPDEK
From the text: Measurement of Bile Acid Transporter Inhibitory Activity in vitro
1) Insertion of human ileal bile acid transporter cDNA into a mammalian expression vector
Human ileal bile acid transporter cDNA (GenBank accession number U10417, hereinafter abbreviated as "hIBAT") was amplified by PCR using a human kidney cDNA library ("Marathon-Ready"™, Clontech Laboratories) as a template. The sense oligonucleotide primer used was 5'-[…]-3' (corresponding to residues 512-533 of hIBAT cDNA: Sequence ID No. 1) while the antisense oligonucleotide primer used was 5'-[…]-3' (corresponding to residues 1649-1670 of hIBAT cDNA: Sequence ID NO. 2). […]
After incubation, the cells were washed 5 times with ice cooled PBS (phosphate buffered saline) containing 0.2% bovine serum albumin and 1 mM non-radioactive taurocholic acid. […] Radioactivity was measured using a "Top Count" (Packard) liquid scintillation counter.
By measuring the radioactivity of the control (no text compound) and comparing this with the radioactivity obtained from the cells exposed to test compound at various, predetermined concentrations, it was possible to determine a percentage inhibition (%) and to obtain an IC50 for the test compound against the ileal bile acid transporter activity.

SMILES	Percentage inhibition [1]	pIC50 [2]
COc1ccc(C(N[C@H](C)c2cc(F)cc(F)c2)c2cccc(Nc3c(O)c(=O)c3=O)c2)cc1 (single isomer, unassigned) [64(e)]	80.0%	
C[C@H](NC(c1ccccc1)c1cccc(Nc2c(N)c(=O)c2=O)c1)c1ccccc1 (single isomer, unassigned) [2 (isomer B)]	61.87%	4.86

From patent US6329405A, “Cyclobutene derivatives, their preparation and their therapeutic uses” (Sankyo Company, Limited, priority 1999, dated 2001)
